According to patent publication US8273769B2, “Phenoxy acetic acid derivatives” (Merck Serono SA, priority 2009, dated 2012):

Target: T1, CRTH2 (Homo sapiens, UniProt Q9Y5Y4)
T1 sequence (Q9Y5Y4 1-395): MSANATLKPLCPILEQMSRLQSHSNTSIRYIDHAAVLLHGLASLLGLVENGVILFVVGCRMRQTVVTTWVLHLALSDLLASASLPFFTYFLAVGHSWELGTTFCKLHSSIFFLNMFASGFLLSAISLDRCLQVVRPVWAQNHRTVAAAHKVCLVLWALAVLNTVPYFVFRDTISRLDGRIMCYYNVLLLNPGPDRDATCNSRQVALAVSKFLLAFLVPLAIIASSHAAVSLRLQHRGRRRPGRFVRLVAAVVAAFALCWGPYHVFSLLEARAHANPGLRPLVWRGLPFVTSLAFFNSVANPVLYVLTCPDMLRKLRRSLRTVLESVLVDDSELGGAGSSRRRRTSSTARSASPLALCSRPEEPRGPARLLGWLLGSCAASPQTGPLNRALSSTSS
Test: Radioligand binding Scintillation Proximity Assay ([3H]PGD2, hCRTH2-CHO cell membranes)
Parameters: host or cells: CHO cells
Details: 1.5 nM [3H]PGD2, hCRTH2-CHO cell membranes, SPA
Protocol: Adherent CHO cells expressing hCRTH2 (Euroscreen, Belgium) were cultured in 225 cm^2 cell culture flasks (Corning, USA) in 30 ml of medium. After two rinses of phosphate buffered saline (PBS), cells were harvested in 10 ml of PBS containing 1 mM EDTA, centrifuged at 500×g for 5 min at 4° C. and frozen at −80° C. The pellet was re-suspended in 50 mM Tris-HCl, pH 7.4, 2 mM EDTA, 250 mM Sucrose, containing protease inhibitor cocktail tablets, (Complete EDTA-free, Roche, Germany) and incubated 30 min at 4° C. Cells were disrupted by nitrogen cavitation (Parr Instruments, USA) at 4° C. (800 p.s.i. for 30 min), and centrifuged at 500×g for 10 min at 4° C. Pellet containing nuclei and cellular debris was discarded and supernatant was centrifuged 60 min at 4° C. at 45000×g. Membrane pellet was re-suspended in storage buffer (10 mM HEPES/KOH pH 7.4, 1 mM EDTA, 250 mM sucrose, protease inhibitor cocktail tablets) using Dounce homogenization and frozen in liquid nitrogen, and stored at −80° C.
The inhibitory activity can be investigated by a radioligand binding Scintillation Proximity Assay (SPA) (Sawyer et al., Br. J. Pharmocol 2002, 137, 1163-72). The SPA radioligand binding assay was performed at room temperature in binding buffer (10 mM HEPES/KOH pH 7.4, 10 mM MnCl2, with protease inhibitor cocktail tablets), containing 1.5 nM [^3H]PGD2 (Perkin Elmer), 10-50 μg/ml of hCRTH2-CHO cell membrane protein and 2 mg/ml of Wheat-germ agglutinin Sintillation Proximity Assay beads (RPNQ0001, GE-Healthcare) in a final volume of 100 μl in 96 well plates (Corning, USA). Non-specific binding was determined in the presence of 10 μM PGD2 (Cayman, USA). Competing Compounds of Formula (I) were diluted in dimethylsulphoxide so that the total volume of dimethylsulfoxide was kept constant at 1% dimethylsulphoxide (Me2SO). Serial dilutions of 100 μM to 100 pM were prepared and 10 μl each of the compounds of Formula (I) stock solutions were added to the binding assay reagents and incubated for 90 min with agitation at room temperature. Binding activity was determined by using a 1450 Micro-beta scintillation counter (Wallac, UK).

IC50 | Compound
0.032 µM | CC1(O)c2ccc(C#Cc3cc(Cl)ccc3OCC(=O)O)cc2S(=O)(=O)C1(C)C (stereo not shown) [Example 160, {4-chloro-2-[(3-hydroxy-2,2,3-trimethyl-1,1-dioxido-2,3-dihydro-1-benzothien-6-yl)ethynyl]phenoxy}acetic acid]
0.025 µM | Cc1ccc(S(=O)(=O)CCO)cc1C#Cc1cc(Cl)ccc1OCC(=O)O [Example 52, [4-chloro-2-({5-[(2-hydroxyethyl)sulfonyl]-2-methylphenyl}ethynyl)phenoxy]acetic acid]
0.102 µM | O=C(O)COc1ccc2ccccc2c1C#Cc1cccc(O)c1 [Example 147, ({1-[(3-hydroxyphenyl)ethynyl]-2-naphthyl}oxy)acetic acid]
0.027 µM | Cc1ccc(S(=O)(=O)N2CCN(C)CC2)cc1C#Cc1cc(Cl)ccc1OCC(=O)O [Example 112, [4-chloro-2-({2-methyl-5-[(4-methylpiperazin-1-yl)sulfonyl]phenyl}ethynyl)phenoxy]acetic acid]
0.015 µM | CCCS(=O)(=O)c1cccc(C#Cc2cc(-c3cccs3)ccc2OCC(=O)O)c1 [Example 134, [2-{[3-(propylsulfonyl)phenyl]ethynyl}-4-(2-thienyl)phenoxy]acetic acid]
0.019 µM | Cc1cc[n+]([O-])cc1C#Cc1cc(Cl)ccc1OCC(=O)O [Example 31, {4-chloro-2-[(4-methyl-1-oxidopyridin-3-yl)ethynyl]phenoxy}acetic acid]
0.267 µM | O=C(O)COc1ccc(Cl)cc1C#Cc1ccc(NC(=O)c2ccc(C(F)(F)F)cc2)cc1 [Example 150, {4-chloro-2-[(4-{[4-(trifluoromethyl)benzoyl]amino}phenyl)ethynyl]phenoxy}acetic acid]
0.102 µM | Cc1nc(C)c(C#Cc2cc(Cl)ccc2OCC(=O)O)s1 [Example 24, {4-chloro-2-[(2,4-dimethyl-1,3-thiazol-5-yl)ethynyl]phenoxy}acetic acid]
0.01 µM | CCCS(=O)(=O)c1ccc(F)c(C#Cc2cc(Cl)cnc2OCC(=O)O)c1 [Example 129, [(5-chloro-3-{[2-fluoro-5-(propylsulfonyl)phenyl]ethynyl}pyridin-2-yl)oxy]acetic acid]
0.033 µM | CCS(=O)(=O)c1ccc(C)c(C#Cc2cc(C#N)ccc2OCC(=O)O)c1 [Example 63, (4-cyano-2-{[5-(ethylsulfonyl)-2-methylphenyl]ethynyl}phenoxy)acetic acid]
0.057 µM | CN(C)C(=O)c1ccc(C#Cc2cc(Cl)ccc2OCC(=O)O)cc1 [Example 125, [4-chloro-2-({4-[(dimethylamino)carbonyl]phenyl}ethynyl)phenoxy]acetic acid]
0.364 µM | CN(c1cncc(C#Cc2cc(C#N)ccc2OCC(=O)O)c1)S(C)(=O)=O [Example 72, [4-cyano-2-({5-[methyl(methylsulfonyl)amino]pyridin-3-yl}ethynyl)phenoxy]acetic acid]
0.085 µM | COCc1ccc(F)c(C#Cc2cc(Cl)ccc2OCC(=O)O)c1 [Example 30, (4-chloro-2-{[2-fluoro-5-(methoxymethyl)phenyl]ethynyl}phenoxy)acetic acid]
0.063 µM | CCCS(=O)(=O)c1cccc(C#Cc2cc(Cl)cnc2OCC(=O)O)c1 [Example 128, [(5-chloro-3-{[3-(propylsulfonyl)phenyl]ethynyl}pyridin-2-yl)oxy]acetic acid]
1.44 µM | O=C(O)COc1ccc(Cl)cc1C#Cc1ccccn1 [Example 13, [4-chloro-2-(pyridin-2-ylethynyl)phenoxy]acetic acid]
0.958 µM | O=C(O)COc1ccccc1C#Cc1ccccc1Cl [Example 45, {2-[(2-chlorophenyl)ethynyl]phenoxy}acetic acid]
0.372 µM | N#Cc1ccc(OCC(=O)O)c(C#Cc2cncc(S(=O)(=O)NCCO)c2)c1 [Example 75, {4-cyano-2-[(5-{[(2-hydroxyethyl)amino]sulfonyl}pyridin-3-yl)ethynyl]phenoxy}acetic acid]

IC50 | Compound
0.009 µM | COc1cccc(-c2ccc(C#Cc3cc(Cl)ccc3OCC(=O)O)cc2S(C)(=O)=O)c1 [Example 142]
0.002 µM | Cc1ccc(S(=O)(=O)N2CCCCC2C)cc1C#Cc1cc(Cl)ccc1OCC(=O)O (stereo not shown) [Example 108, [4-chloro-2-({2-methyl-5-[(2-methylpiperidin-1-yl)sulfonyl]phenyl}ethynyl)-phenoxy]acetic acid]
0.034 µM | CC1(C)C(=O)c2ccc(C#Cc3cc(Cl)ccc3OCC(=O)O)cc2S1(=O)=O [Example 158, {4-chloro-2-[(2,2-dimethyl-1,1-dioxido-3-oxo-2,3-dihydro-1-benzothien-6-yl)ethynyl]phenoxy}acetic acid]
0.009 µM | O=C(O)COc1ccc(Cl)cc1C#Cc1cc(S(=O)(=O)C(F)(F)F)ccc1Cl [Example 130, [4-chloro-2-({2-chloro-5-[(trifluoromethyl)sulfonyl]phenyl}ethynyl)phenoxy]acetic acid]
0.048 µM | O=C(O)COc1ccc(Cl)cc1C#Cc1cccc(CO)c1F [Example 28, (4-chloro-2-{[2-fluoro-3-(hydroxymethyl)phenyl]ethynyl}phenoxy)acetic acid]
0.007 µM | Cc1ccc(S(=O)(=O)Cc2ccccc2)cc1C#Cc1cc(Cl)ccc1OCC(=O)O [Example 91, (2-{[5-(benzylsulfonyl)-2-methylphenyl]ethynyl}-4-chlorophenoxy)acetic acid]
0.03 µM | N#Cc1ccc(OCC(=O)O)c(C#Cc2ccccc2Cl)c1 [Example 23, {2-[(2-chlorophenyl)ethynyl]-4-cyanophenoxy}acetic acid]
0.111 µM | O=C(O)COc1ccc(Cl)cc1C#Cc1cccc(C(F)(F)F)c1 [Example 7, (4-chloro-2-{[3-(trifluoromethyl)phenyl]ethynyl}phenoxy)acetic acid]
0.011 µM | Cc1ccc(S(=O)(=O)c2ccccc2)cc1C#Cc1cc(C#N)ccc1OCC(=O)O [Example 94, (4-cyano-2-{[2-methyl-5-(phenylsulfonyl)phenyl]ethynyl}phenoxy)acetic acid]
0.106 µM | O=C(O)COc1ccc(Cl)cc1C#Cc1ccc(C(=O)N2CCOCC2)cc1 [Example 124, (4-chloro-2-{[4-(morpholin-4-ylcarbonyl)phenyl]ethynyl}phenoxy)acetic acid]
0.051 µM | CCCCCCc1ccncc1C#Cc1cc(Cl)ccc1OCC(=O)O [Example 29, {4-chloro-2-[(4-hexylpyridin-3-yl)ethynyl]phenoxy}acetic acid]
0.005 µM | Cc1ccc(S(=O)(=O)N2CCC2)cc1C#Cc1cc(Cl)ccc1OCC(=O)O [Example 123, (2-{[5-(azetidin-1-ylsulfonyl)-2-methylphenyl]ethynyl}-4-chlorophenoxy)acetic acid]
0.013 µM | CNS(=O)(=O)c1ccc(C)c(C#Cc2cc(Cl)ccc2OCC(=O)O)c1 [Example 84, [4-chloro-2-({2-methyl-5-[(methylamino)sulfonyl]phenyl}ethynyl)phenoxy]acetic acid]
0.011 µM | CCS(=O)(=O)c1ccc(C)c(C#Cc2cc(Cl)ccc2OCC(=O)O)c1 [Example 50, (4-chloro-2-{[5-(ethylsulfonyl)-2-methylphenyl]ethynyl}phenoxy)acetic acid]
0.032 µM | CCCCN(C)C(=O)c1ccc(C#Cc2cc(Cl)ccc2OCC(=O)O)cc1S(=O)(=O)C(C)C [Example 163, (2-{[4-{[butyl(methyl)amino]carbonyl}-3-(isopropylsulfonyl)phenyl]ethynyl}-4-chlorophenoxy)acetic acid]
0.017 µM | CS(=O)(=O)c1cc(C#Cc2cc(Cl)ccc2OCC(=O)O)ccc1-c1ccc(Cl)cc1 [Example 144, (4-chloro-2-{[4′-chloro-2-(methylsulfonyl)biphenyl-4-yl]ethynyl}phenoxy)acetic acid]
0.046 µM | N#Cc1ccc(F)c(C#Cc2cc(Cl)ccc2OCC(=O)O)c1 [Example 21, {4-chloro-2-[(5-cyano-2-fluorophenyl)ethynyl]phenoxy}acetic acid]
